Results: patent publication US20080004222A1, “Antitumorigenic Drug Combination” (priority 2006, published 2008)
Non-standard residues stand in square brackets, D forms with d. d(aIle) = CC[C@H](C)[C@@H](N)C(=O)O; Nva = CCC[C@H](N)C(=O)O; Sar = CNCC(=O)O

What was measured:
[1] = system: SMS-KCNR MYCN-amplified NB cell line xenografts; assay: Neuroblastoma xenograft study, SMS-KCNR model; assay type: in vivo, athymic nude mice; conditions: SMS-KCNR xenografts about 70 mm^3, 20 days of treatment, each agent alone and in combination
Experimental: (§1) SMS-KCNR, NMB, and NBL-W-S MYCN amplified NB cell lines were used in this study. Cells were grown at 5% CO2 in RPMI 1640 (Invitrogen, Carlsbad, Calif.) supplemented with 10% heat-inactivated fetal bovine serum, L-Glutamine, and antibiotics.
(§2) Lyophilized peptides with the sequence: acetyl-sarcosine-glycine-valine-D-alloisoleucine-threonine-norvaline-isoleucine-arginine-proline-ethylamide were dissolved in sterile 5% dextrose and stored at 4° C.
(§3) Female 4-6 week old homozygous athymic nude mice (Harlan, Madison, Wis.) were inoculated s.c. into the right flank with ^1×107SMS-KCNR or 1.25×10^7 NMB cells. Once tumors were palpable (70 mm^3), mice were treated 1×/day for 20 days with either acetyl-sarcosine-glycine-valine-Dalloisoleucine-threonine-norvaline-isoleucine-arginine-proline-ethylamide (IP, 40 mg/kg), VPA (IP, 400 mg/kg) or acetyl-sarcosine-glycine-valine-D-alloisoleucine-threonine-norvaline-isoleucine-arginine-proline-ethylamide and VPA (in combination). In separate experiments, treatment was started after the animals developed larger tumors>380 mm^3 in size and treatment was continued for 10 days. Tumor volumes were measured twice a week and calculated using the formula: tumor volume =(length X width^2)/2(25). The Student's t-test was used to compare tumor size in the control and treatment groups. Mice were sacrificed after 20 or 10 days of treatment, respectively. […]

[2] = system: NMB MYCN-amplified NB cell line xenografts; assay: Neuroblastoma xenograft study, NMB xenografts; assay type: in vivo, athymic nude mice; conditions: NMB xenografts about 70 mm^3, 20 days of treatment, each agent alone and in combination
Experimental: as §1, §2, §3

large NB xenografts = conditions: large xenografts >380 mm^3, after 10 days of treatment; peptide p<0.01, VPA p<0.001; FIG. 1C
Experimental: as §1, §2, §3

Ac-[Sar]GV[d(aIle)]T[Nva]IRP-NHEt
tumor growth (result in words) [1]: Tumor growth was inhibited | tumor growth (result in words) [2]: Tumor growth was inhibited | tumor volumes reduced (large NB xenografts): 33%

CCCC(CCC)C(=O)O [VPA, valproic acid]
tumor growth (result in words) [1]: Tumor growth was inhibited | tumor growth (result in words) [2]: Tumor growth was inhibited | tumor volumes reduced (large NB xenografts): 44%
